This data set is described as follows: clinical. The conditions noted are these: for half-life: human, in vivo. An excerpt:
(See J. W. Ng, et al., “Dose-Dependent Suppression of Gonadotropins and Ovarian Hormones by Elagolix in Healthy Premenopausal Females” (poster, 2016); J. Grundy, et al., […] (2008), Vol 83: Supplement 1, S9).

SMILES strings stand for the structures.

A word on the half-life: it is the time in which the quantity being followed falls by half. The low end stands for rapid decline, the high end for slow decline. With `CONC(=O)Nc1ccc(-c2sc3c(c2CN(C)C)c(=O)n(-c2ccc(OC)nn2)c(=O)n3Cc2c(F)cccc2F)cc1` [Compound 1, N-(4-(1-(2,6-difluorobenzyl)-5-((dimethylamino)methyl)-3-(6-methoxy-3-pyridazinyl)-2,4-dioxo-1,2,3,4-tetrahydrothieno[2,3-d]pyrimidin-6-yl)phenyl)-N′-methoxyurea], the “E2 in the majority of subjects” value (40 mg per day) is on record as “below 10 pg/mL”. Besides, the half-life is about 61 h (T1/2, highest found) and 37 to 42 h (half-life (T1/2)).
